US12673961B2 (Agios Pharmaceuticals, Inc., priority 2022, dated 2026)

These molecules were tested against T1, human PAH with the R408W mutation (Homo sapiens, UniProt P00439, R408W) (assay: Cell Based Phenylalanine Flux Assay). Settings: A375 cells expressing human R408W PAH; 24 hrs compound incubation; 13C-Tyrosine by LC-MS; average where tested multiple times; read-out: AC50.
T1 construct: expressed in transfected cells
T1 sequence (P00439 1-452 R408W): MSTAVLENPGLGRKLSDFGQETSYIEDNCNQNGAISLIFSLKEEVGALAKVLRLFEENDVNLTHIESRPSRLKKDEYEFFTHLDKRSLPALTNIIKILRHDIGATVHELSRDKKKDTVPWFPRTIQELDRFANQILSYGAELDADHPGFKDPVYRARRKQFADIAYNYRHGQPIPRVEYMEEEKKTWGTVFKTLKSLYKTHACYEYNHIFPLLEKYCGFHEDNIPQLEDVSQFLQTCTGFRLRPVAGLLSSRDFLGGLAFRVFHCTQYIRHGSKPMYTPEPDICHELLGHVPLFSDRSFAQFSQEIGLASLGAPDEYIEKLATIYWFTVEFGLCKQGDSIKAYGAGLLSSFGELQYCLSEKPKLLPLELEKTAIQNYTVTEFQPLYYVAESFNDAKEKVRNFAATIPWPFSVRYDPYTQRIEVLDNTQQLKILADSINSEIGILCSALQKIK
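Also: Ten-point dose curve from 2-fold serial dilutions, run in duplicate at 0.5% DMSO final, tracer step used 20 µM sepiapterin and 800 µM labeled phenylalanine.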

Row | AC50 | Structure (SMILES)
1 | > 5 µM | C[C@@H](O)c1nc(C(F)F)c(C(=O)N2CCc3[nH]cnc3[C@@H]2c2cc3ccccn3n2)o1 [Example 691, (4-(difluoromethyl)-2-((R)-1-hydroxyethyl)oxazol-5-yl)((R)-4-(pyrazolo[1,5-a]pyridin-2-yl)-6,7-dihydro-1H-imidazo[4,5-c]pyridin-5(4H)-yl)methanone]
2 | 1 to 5 µM | C[C@@H](O)c1nc(C(F)F)c(C(=O)N2CCc3[nH]cnc3[C@@H]2c2cc3c(Cl)cccn3n2)o1 [Example 703, ((R)-4-(4-chloropyrazolo [1,5-a]pyridin-2-yl)-6,7-dihydro-1H-imidazo[4,5-c]pyridin-5(4H)-yl)(4-(difluoromethyl)-2-((R)-1-hydroxyethyl)oxazol-5-yl)methanone]
3 | 1 to 5 µM | O=C(c1oc(C2(O)CC2)nc1C(F)F)N1CCc2[nH]cnc2[C@@H]1c1cc2c(Cl)cccn2n1 [Example 705, (R)-(4-(4-chloropyrazolo [1,5-a]pyridin-2-yl)-6,7-dihydro-1H-imidazo[4,5-c]pyridin-5(4H)-yl)(4-(difluoromethyl)-2-(1-hydroxycyclopropyl)oxazol-5-yl)methanone]
4 | > 5 µM | C[C@@H](O)c1nc(C(F)F)c(C(=O)N2CCc3[nH]cnc3[C@@H]2c2cc3c(F)cccn3n2)o1 [Example 711, (4-(difluoromethyl)-2-((R)-1-hydroxyethyl)oxazol-5-yl)((R)-4-(4-fluoropyrazolo [1,5-a]pyridin-2-yl)-6,7-dihydro-1H-imidazo[4,5-c]pyridin-5(4H)-yl)methanone]
5 | < 0.5 µM | C[C@H](O)c1nc(C(F)F)c(C(=O)N2CCc3[nH]cnc3[C@H]2c2cc3c(F)cccn3n2)o1 [Example 712, (4-(difluoromethyl)-2-((S)-1-hydroxyethyl)oxazol-5-yl)((S)-4-(4-fluoropyrazolo [1,5-a]pyridin-2-yl)-6,7-dihydro-1H-imidazo[4,5-c]pyridin-5(4H)-yl)methanone]
6 | > 5 µM | C[C@H](O)c1nc(C(F)F)c(C(=O)N2CCc3[nH]cnc3[C@@H]2c2cc3c(F)cccn3n2)o1 [Example 713, (4-(difluoromethyl)-2-((S)-1-hydroxyethyl)oxazol-5-yl)((R)-4-(4-fluoropyrazolo [1,5-a]pyridin-2-yl)-6,7-dihydro-1H-imidazo[4,5-c]pyridin-5(4H)-yl)methanone]
7 | > 5 µM | Cn1cc(-c2nnc(C(=O)N3CCc4[nH]cnc4[C@@H]3c3cc4c(F)cccn4n3)o2)cn1 [Example 729, (R)-(4-(4-fluoropyrazolo[1,5-a]pyridin-2-yl)-6,7-dihydro-1H-imidazo[4,5-c]pyridin-5(4H)-yl)(5-(1-methyl-1H-pyrazol-4-yl)-1,3,4-oxadiazol-2-yl)methanone]
8 | < 0.5 µM | Cn1ccc(-c2nnc(C(=O)N3CCc4[nH]cnc4[C@H]3c3cc4c(F)cccn4n3)o2)n1 [Example 730, (S)-(4-(4-fluoropyrazolo [1,5-a]pyridin-2-yl)-6,7-dihydro-1H-imidazo[4,5-c]pyridin-5(4H)-yl)(5-(1-methyl-1H-pyrazol-3-yl)-1,3,4-oxadiazol-2-yl)methanone]
9 | > 5 µM | O=C(c1nnc(-c2ccccn2)o1)N1CCc2[nH]cnc2[C@@H]1c1cc2c(F)cccn2n1 [Example 732, (R)-(4-(4-fluoropyrazolo [1,5-a]pyridin-2-yl)-6,7-dihydro-1H-imidazo[4,5-c]pyridin-5(4H)-yl)(5-(pyridin-2-yl)-1,3,4-oxadiazol-2-yl)methanone]
10 | > 5 µM | Cc1cccn2nc([C@H]3c4nc[nH]c4CCN3C(=O)c3nnc(-c4ccn(C)n4)o3)cc12 [Example 742, (R)-(5-(1-methyl-1H-pyrazol-3-yl)-1,3,4-oxadiazol-2-yl)(4-(4-methylpyrazolo[1,5-a]pyridin-2-yl)-6,7-dihydro-1H-imidazo [4,5-c]pyridin-5(4H)-yl)methanone]
11 | < 0.5 µM | CC(C)(O)c1nc(C(F)(F)F)c(C(=O)N2CCc3[nH]cnc3[C@H]2c2cc3c(F)cccn3n2)o1 [Example 744, (S)-(4-(4-fluoropyrazolo[1,5-a]pyridin-2-yl)-6,7-dihydro-1H-imidazo[4,5-c]pyridin-5(4H)-yl)(2-(2-hydroxypropan-2-yl)-4-(trifluoromethyl)oxazol-5-yl)methanone]
12 | > 5 µM | Cc1nc([C@H](C)O)oc1C(=O)N1CCc2[nH]cnc2[C@@H]1c1cc2c(C)cccn2n1 [Example 751, (2-((S)-1-hydroxyethyl)-4-methyloxazol-5-yl)((R)-4-(4-methylpyrazolo[1,5-a]pyridin-2-yl)-6,7-dihydro-1H-imidazo [4,5-c]pyridin-5(4H)-yl) methanone]
13 | > 5 µM | Cc1nc(C(C)(C)O)oc1C(=O)N1CCc2[nH]cnc2[C@@H]1c1cc2c(C)cccn2n1 [Example 755, (R)-(2-(2-hydroxypropan-2-yl)-4-methyloxazol-5-yl)(4-(4-methylpyrazolo[1,5-a]pyridin-2-yl)-6,7-dihydro-1H-imidazo[4,5-c]pyridin-5(4H)-yl)methanone]
14 | > 5 µM | Cc1cccn2nc([C@H]3c4nc[nH]c4CCN3C(=O)c3cnco3)cc12 [Example 769, (R)-(4-(4-methylpyrazolo [1,5-a]pyridin-2-yl)-6,7-dihydro-1H-imidazo[4,5-c]pyridin-5(4H)-yl)(oxazol-5-yl)methanone]
15 | > 5 µM | COc1cccn2nc([C@H]3c4nc[nH]c4CCN3C(=O)c3nnc(-c4ccccn4)o3)cc12 [Example 778, (R)-(4-(4-methoxypyrazolo [1,5-a]pyridin-2-yl)-6,7-dihydro-1H-imidazo[4,5-c]pyridin-5(4H)-yl)(5-(pyridin-2-yl)-1,3,4-oxadiazol-2-yl)methanone]
16 | 1 to 5 µM | O=C(c1ccnn1C(F)F)N1CCc2[nH]cnc2[C@@H]1c1cc2c(Cl)cccn2n1 [Example 783, (R)-(4-(4-chloropyrazolo [1,5-a]pyridin-2-yl)-6,7-dihydro-1H-imidazo [4,5-c]pyridin-5(4H)-yl)(1-(difluoromethyl)-1H-pyrazol-5-yl)methanone]
17 | 1 to 5 µM | Cc1c([C@H]2c3nc[nH]c3CCN2C(=O)c2oc(C(C)(C)O)nc2C(F)F)nn2ccccc12 [Example 787, (R)-(4-(difluoromethyl)-2-(2-hydroxypropan-2-yl)oxazol-5-yl)(4-(3-methylpyrazolo[1,5-a]pyridin-2-yl)-6,7-dihydro-1H-imidazo [4,5-c]pyridin-5(4H)-yl)methanone]
18 | < 0.5 µM | COc1ccc(-c2nnc(C(=O)N3CCc4[nH]cnc4[C@H]3c3cc4c(F)cccn4n3)o2)nc1 [Example 788, (S)-(4-(4-fluoropyrazolo[1,5-a]pyridin-2-yl)-6,7-dihydro-1H-imidazo[4,5-c]pyridin-5(4H)-yl)(5-(5-methoxypyridin-2-yl)-1,3,4-oxadiazol-2-yl)methanone]
19 | < 0.5 µM | O=C(c1nnc(-c2ncccc2F)o1)N1CCc2[nH]cnc2[C@H]1c1cc2c(F)cccn2n1 [Example 791, (S)-(4-(4-fluoropyrazolo[1,5-a]pyridin-2-yl)-6,7-dihydro-1H-imidazo[4,5-c]pyridin-5(4H)-yl)(5-(3-fluoropyridin-2-yl)-1,3,4-oxadiazol-2-yl) methanone]
20 | > 5 µM | O=C(c1nnc(-c2cnn(C(F)F)c2)o1)N1CCc2[nH]cnc2[C@@H]1c1cc2c(F)cccn2n1 [Example 797, (R)-(5-(1-(difluoromethyl)-1H-pyrazol-4-yl)-1,3,4-oxadiazol-2-yl)(4-(4-fluoropyrazolo[1,5-a]pyridin-2-yl)-6,7-dihydro-1H-imidazo[4,5-c]pyridin-5(4H)-yl)methanone]
21 | > 5 µM | Cc1cccc2cc([C@H]3c4nc[nH]c4CCN3C(=O)c3nnc(-c4ccccn4)o3)nn12 [Example 799, (R)-(4-(7-methylpyrazolo [1,5-a]pyridin-2-yl)-6,7-dihydro-1H-imidazo[4,5-c]pyridin-5(4H)-yl)(5-(pyridin-2-yl)-1,3,4-oxadiazol-2-yl) methanone]
22 | 0.5 to 1 µM | Cc1cccc2cc([C@@H]3c4nc[nH]c4CCN3C(=O)c3nnc(-c4cnn(C)c4)o3)nn12 [Example 800, (S)-(5-(1-methyl-1H-pyrazol-4-yl)-1,3,4-oxadiazol-2-yl)(4-(7-methylpyrazolo[1,5-a]pyridin-2-yl)-6,7-dihydro-1H-imidazo[4,5-c]pyridin-5(4H)-yl)methanone]
23 | < 0.5 µM | Cc1cccc2cc([C@@H]3c4nc[nH]c4CCN3C(=O)c3nnc(-c4ccn(C)n4)o3)nn12 [Example 802, (S)-(5-(1-methyl-1H-pyrazol-3-yl)-1,3,4-oxadiazol-2-yl)(4-(7-methylpyrazolo[1,5-a]pyridin-2-yl)-6,7-dihydro-1H-imidazo[4,5-c]pyridin-5(4H)-yl)methanone]
24 | < 0.5 µM | Cc1ccc2cc([C@@H]3c4nc[nH]c4CCN3C(=O)c3oc(C(C)(C)O)nc3C(F)F)nn2c1 [Example 804]
25 | 0.5 to 1 µM | Cc1cccn2nc([C@@H]3c4nc[nH]c4CCN3C(=O)c3nnc(-c4cn(C)cn4)o3)cc12 [Example 806, (S)-(5-(1-methyl-1H-imidazol-4-yl)-1,3,4-oxadiazol-2-yl)(4-(4-methylpyrazolo[1,5-a]pyridin-2-yl)-6,7-dihydro-1H-imidazo[4,5-c]pyridin-5(4H)-yl)methanone]

Row | Structure (SMILES) | AC50
26 | CC(C)(C#N)c1nc(C(F)F)c(C(=O)N2CCc3[nH]cnc3[C@@H]2c2cc3ccccn3n2)o1 [Example 698, (R)-2-(4-(difluoromethyl)-5-(4-(pyrazolo[1,5-a]pyridin-2-yl)-4,5,6,7-tetrahydro-1H-imidazo[4,5-c]pyridine-5-carbonyl)oxazol-2-yl)-2-methylpropanenitrile] | 1 to 5 µM
